These results are taken from patent US20260248833A1, “PYRIMIDINE NUCLEOSIDE TREATMENTS” (The Children`s Medical Center Corporation, priority 2022, published 2026).

Holding throughout (format): biochemical
Experiment [1] addresses T1, immunopurified T-free telomerase (Homo sapiens, UniProt O14746).
T1 construct: made in house; host or cells: TERC-null 293T cells, transient transfection; anti-HA magnetic bead immunopurification, enzyme used on beads
The experiment is described as follows: Direct telomerase assay on immunopurified T-free telomerase. Here is the method:
Telomerase immunopurification: 293T TERC-null cells were transfected as described above with 3×HA-TERT and TERC/EGFP in 10-cm diameter dishes with reagents scaled up proportional to cell growth area. Two days after transfection, cells were harvested, washed once in PBS, and lysed in TRAPezeTM1×CHAPS Lysis Buffer (Roche) supplemented with RNasin Plus (Promega) and HALT protease inhibitor cocktail (Thermo Fisher), followed by incubation on ice for 30 minutes and precipitation of insoluble material by centrifugation. Immunoprecipitation was performed as described previously with minor modifications. Briefly, 75 μl of anti-HA magnetic beads (Sigma-Aldrich, SAE0197, mouse IgG1 monoclonal antibody, Clone HA-7, 50% beads by volume) were added to clarified lysates followed by 2 hours incubation at 4° C. while rotating. […] Images were quantified using ImageJ as follows. For total telomerase activity measurement (FIG. 25f), telomerase product signal in a lane was quantified and normalized to the loading control band signal within the same lane. […] For the analysis of telomerase repeat intensity (FIG. 25x), the signal of each repeat (defined as the three consecutive intense bands in the laddering pattern, as indicated in FIG. 25d), was quantified and first normalized to the loading control band signal for that lane. […]

The next experiment addresses T2, telomerase (Homo sapiens, UniProt O14746).
T2 construct: expressed in transfected cells; host or cells: TERC-null 293T cells transfected with TERT and TERC expression vectors
Nature of the experiment: Modified TRAP assay with exogenous dTTP on super-telomerase extracts. Conditions: increasing levels of exogenous dTTP. Here is the method: (§1) TRAP assay: cell extracts for TRAP assays were made using TRAPeze™1×CHAPS Lysis Buffer (Roche) supplemented with RNASEin (Promega). Standard TRAP reactions (in FIG. 25a) were performed as described, with cell input normalized across samples using the Bio-Rad DC assay. TRAP assays were modified to enable unique dNTP concentrations in telomerase reactions from PCR reactions (FIG. 25) as follows: reactions were assembled with 1×TRAP buffer (20 mM Tris-HCl, pH 8.3; 1.5 mM MgCl2; 63 mM KCl; 0.05% Tween 20; 1 mM EGTA), TS, ACX, TNST, and NT primers as described (see Primers/Oligos below), dNTPs were added at physiologic concentrations (dATP 24 μM, dGTP 5.2 μM, dCTP 29 μM, dTTP 37 μM) unless otherwise mentioned in the figure legend, followed by telomerase extracts. TRAP assays were modified to detect GGAAAG repeats using the following primers: TS GGAAAG, TNST GGAAAG, ACX GGAAAG, and NT (see Primers/Oligos below). After addition of telomerase extracts, reactions were incubated for 30 minutes at 30° C. followed by heat inactivation at 95° C. for 5 minutes. […] Images were quantified for a given lane using ImageJ by measuring the signal of the telomerase repeat sized products divided by the signal of the internal control band for the lane, normalized to the same ratio for the untreated sample(s) in a given experiment. […]

For a further experiment, the target named is T3, T-free telomerase (Homo sapiens, UniProt O14746).
T3 construct: expressed in transfected cells; host or cells: TERC-null 293T cells transfected with TERT and T-free TERC vectors
Nature of the experiment: Modified GGAAAG TRAP assay on T-free super-telomerase extracts. The note with it: increasing dTTP levels. Here is the method:
as §1

T1 sequence (O14746 whole entry): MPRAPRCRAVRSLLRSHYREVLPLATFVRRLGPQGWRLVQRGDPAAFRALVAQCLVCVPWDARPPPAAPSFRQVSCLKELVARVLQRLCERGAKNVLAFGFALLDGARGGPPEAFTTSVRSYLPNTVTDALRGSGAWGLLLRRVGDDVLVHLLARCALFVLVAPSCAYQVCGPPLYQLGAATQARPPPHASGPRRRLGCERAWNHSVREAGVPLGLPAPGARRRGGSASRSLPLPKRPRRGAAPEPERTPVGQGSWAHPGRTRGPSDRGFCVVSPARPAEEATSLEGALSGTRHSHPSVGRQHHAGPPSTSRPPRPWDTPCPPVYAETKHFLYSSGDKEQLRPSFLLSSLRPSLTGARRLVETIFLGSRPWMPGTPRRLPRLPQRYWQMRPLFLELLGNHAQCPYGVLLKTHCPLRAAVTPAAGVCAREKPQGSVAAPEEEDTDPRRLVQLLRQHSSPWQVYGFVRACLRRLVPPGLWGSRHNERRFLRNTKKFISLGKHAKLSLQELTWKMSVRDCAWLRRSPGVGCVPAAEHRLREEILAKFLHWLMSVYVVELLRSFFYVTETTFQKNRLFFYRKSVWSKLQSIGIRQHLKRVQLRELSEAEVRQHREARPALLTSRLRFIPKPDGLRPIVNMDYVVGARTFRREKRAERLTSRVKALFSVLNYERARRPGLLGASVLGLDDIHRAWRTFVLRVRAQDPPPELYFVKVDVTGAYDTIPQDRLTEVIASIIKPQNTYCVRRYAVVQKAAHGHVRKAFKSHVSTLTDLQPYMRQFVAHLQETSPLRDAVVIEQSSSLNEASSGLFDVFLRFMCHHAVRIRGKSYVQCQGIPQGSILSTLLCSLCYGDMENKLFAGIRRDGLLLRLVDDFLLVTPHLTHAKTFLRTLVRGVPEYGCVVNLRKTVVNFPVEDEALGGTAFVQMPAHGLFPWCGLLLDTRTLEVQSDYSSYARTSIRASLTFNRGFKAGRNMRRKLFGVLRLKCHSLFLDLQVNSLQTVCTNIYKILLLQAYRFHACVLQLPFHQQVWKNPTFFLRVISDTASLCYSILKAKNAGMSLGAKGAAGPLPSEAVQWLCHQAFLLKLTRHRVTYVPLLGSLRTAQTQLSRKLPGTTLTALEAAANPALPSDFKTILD
T1 sequence (O60832 whole entry partner): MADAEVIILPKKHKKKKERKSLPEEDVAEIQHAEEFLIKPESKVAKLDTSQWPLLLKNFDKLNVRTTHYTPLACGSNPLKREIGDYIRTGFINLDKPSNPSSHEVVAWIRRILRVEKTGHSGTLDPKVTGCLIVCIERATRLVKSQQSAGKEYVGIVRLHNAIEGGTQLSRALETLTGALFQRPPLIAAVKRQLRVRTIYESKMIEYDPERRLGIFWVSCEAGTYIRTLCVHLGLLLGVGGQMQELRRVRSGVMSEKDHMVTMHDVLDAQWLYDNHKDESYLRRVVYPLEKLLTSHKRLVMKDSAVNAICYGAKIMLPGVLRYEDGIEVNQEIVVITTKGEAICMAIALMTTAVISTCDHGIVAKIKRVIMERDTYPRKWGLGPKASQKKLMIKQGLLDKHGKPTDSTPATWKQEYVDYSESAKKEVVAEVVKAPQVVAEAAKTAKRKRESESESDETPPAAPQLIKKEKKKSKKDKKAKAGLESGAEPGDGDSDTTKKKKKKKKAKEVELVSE
T1 sequence (Q9NPE3 whole entry partner): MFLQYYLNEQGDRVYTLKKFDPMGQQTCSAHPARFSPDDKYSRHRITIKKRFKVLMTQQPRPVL
T1 sequence (Q9NX24 whole entry partner): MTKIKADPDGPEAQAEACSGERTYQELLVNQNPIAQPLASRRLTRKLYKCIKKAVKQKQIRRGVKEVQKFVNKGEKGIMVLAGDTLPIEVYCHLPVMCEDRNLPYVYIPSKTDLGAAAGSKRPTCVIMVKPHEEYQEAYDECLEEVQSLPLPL
T1 sequence (Q9NY12 whole entry partner): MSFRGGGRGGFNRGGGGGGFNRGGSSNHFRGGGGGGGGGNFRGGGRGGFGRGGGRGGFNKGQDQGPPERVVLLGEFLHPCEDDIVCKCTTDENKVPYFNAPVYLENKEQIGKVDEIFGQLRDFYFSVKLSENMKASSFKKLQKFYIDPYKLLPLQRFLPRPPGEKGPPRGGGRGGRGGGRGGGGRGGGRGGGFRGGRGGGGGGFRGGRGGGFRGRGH
T3 sequence (O14746 whole entry): as the sequence (O14746 whole entry) above
T3 sequence (O60832 whole entry partner): as the sequence (O60832 whole entry partner) above
T3 sequence (Q9NPE3 whole entry partner): as the sequence (Q9NPE3 whole entry partner) above
T3 sequence (Q9NX24 whole entry partner): as the sequence (Q9NX24 whole entry partner) above
T3 sequence (Q9NY12 whole entry partner): as the sequence (Q9NY12 whole entry partner) above
T2 sequence (O14746 whole entry): as the sequence (O14746 whole entry) above
T2 sequence (O60832 whole entry partner): as the sequence (O60832 whole entry partner) above
T2 sequence (Q9NPE3 whole entry partner): as the sequence (Q9NPE3 whole entry partner) above
T2 sequence (Q9NX24 whole entry partner): as the sequence (Q9NX24 whole entry partner) above
T2 sequence (Q9NY12 whole entry partner): as the sequence (Q9NY12 whole entry partner) above

In the case of `Cc1cn([C@H]2C[C@H](O)[C@@H](COP(=O)(O)OP(=O)(O)OP(=O)(O)O)O2)c(=O)[nH]c1=O` [dTTP, dT triphosphate], in experiment [1] (at a concentration of 25 μM dTTP), the “T-free telomerase activity, levels higher than without dTTP” value is given as “approximately 50%”. Further, the T-free telomerase activity entry in experiment [1] (incorporation of α-32P-dATP, dTTP added) is listed as “enhanced T-free telomerase activity in a dose-dependent manner”; on T-free telomerase, “increased T-free telomerase activity with increasing dTTP levels”. Further, on telomerase, the telomerase activity entry was “enhanced telomerase activity”.
